Results taken from US20080119505A1, “Novel 6-Pyridylphenanthridines” (ALTANA Pharma AG, priority 2005, published 2008).

Target: T1, PDE4B2 (Homo sapiens, UniProt Q07343)
T1 construct: made in house; host or cells: SF21 insect cells (baculovirus; virus made in SF9 cells)
Test: Inhibition of PDE4 activity (PDE4B2 [3H]cAMP SPA enzyme assay)
Assay type: biochemical
Conditions: recombinant PDE4B2 expressed in SF21 insect cells, 0.5 μM cAMP, read-out: −log IC50 (mol/l), Inhibition of the PDE4 activity (converted)
Method: The PDE4B2 (GB no. M97515) was a gift of Prof. M. Conti (Stanford University, USA). It was amplified from the original plasmid (pCMV5) via PCR with primers Rb9 (5′-[…]-3′) and Rb10 (5′-[…]-3′) and cloned into the pCR-Bac vector (Invitrogen, Groningen, NL).
The recombinant baculovirus was prepared by means of homologous recombination in SF9 insect cells. The expression plasmid was cotransfected with Bac-N-Blue (Invitrogen, Groningen, NL) or Baculo-Gold DNA (Pharmingen, Hamburg) using a standard protocol (Pharmingen, Hamburg). Wt virus-free recombinant virus supernatant was selected using plaque assay methods. After that, high-titre virus supernatant was prepared by amplifying 3 times. PDE was expressed in SF21 cells by infecting 2×10^6 cells/ml with an MOI (multiplicity of infection) between 1 and 10 in serum-free SF900 medium (Life Technologies, Paisley, UK). […]
The SF21 insect cells were resuspended, at a concentration of approx. 10^7 cells/ml, in ice-cold (4° C.) homogenization buffer (20 mM Tris, pH 8.2, containing the following additions: 140 mM NaCl, 3.8 mM KCl, 1 mM EGTA, 1 mM MgCl2, 10 mM β-mercaptoethanol, 2 mM benzamidine, 0.4 mM Pefablock, 10 μM leupeptin, 10 μM pepstatin A, 5 μM trypsin inhibitor) and disrupted by ultrasonication. […] The protein content was determined by the Bradford method (BioRad, Munich) using BSA as the standard. […]

T1 sequence (Q07343 1-564 isoform Q07343-2): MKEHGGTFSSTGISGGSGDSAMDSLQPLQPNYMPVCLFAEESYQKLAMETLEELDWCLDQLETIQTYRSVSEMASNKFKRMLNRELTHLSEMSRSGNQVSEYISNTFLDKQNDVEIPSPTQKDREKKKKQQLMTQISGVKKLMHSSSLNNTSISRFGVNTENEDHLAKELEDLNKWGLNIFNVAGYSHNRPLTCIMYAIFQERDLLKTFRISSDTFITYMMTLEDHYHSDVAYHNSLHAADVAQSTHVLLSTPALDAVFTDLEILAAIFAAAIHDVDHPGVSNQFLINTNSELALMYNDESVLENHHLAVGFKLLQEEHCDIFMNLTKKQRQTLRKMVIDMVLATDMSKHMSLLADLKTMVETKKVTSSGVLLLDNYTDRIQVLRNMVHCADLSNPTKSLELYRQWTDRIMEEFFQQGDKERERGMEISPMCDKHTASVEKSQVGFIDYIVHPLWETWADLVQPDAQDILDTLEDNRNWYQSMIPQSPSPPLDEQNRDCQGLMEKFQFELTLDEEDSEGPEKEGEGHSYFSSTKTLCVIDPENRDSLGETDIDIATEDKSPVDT

IC50: 3.24 nM
SMILES: CCOc1cc2c(cc1OC)C(c1ccc(OC)nc1OC)=N[C@@H]1CCCC[C@H]21 [Example 2, (4aR,10bR)-6-(2,6-Dimethoxy-pyridin-3-yl)-9-ethoxy-8-methoxy-1,2,3,4,4a,10b-hexahydro-phenanthridine]
